Measurements taken from patent publication EP0381345B1, “Aqueous liquid desmopressin-CMC pharmaceutical composition” (CORINT, LTD., priority 1989, dated 1990).
Marks after values point to notes of the source that are not given here.

Experiments:
in vivo = conditions: male, rat, sc, pH 4
Normal test subjects = conditions: in vivo
Procedure: Normal test subjects were loaded with 1.5% body weight of water under constantly maintained conditions, with urine being collected every 30 minutes, as described by J.H. Cort et al., Kidney International. 8:292, 1975, and then they were administered dDAVP intranasally, using a standard 0.1 mg/ml formulation obtained from Ferring AB of Malmo. A portion of the dDAVP was set aside, while Na-CMC was added to another portion to form a solution having a CMC:dDAVP weight ratio of 100:1.

[1] = in vivo, iv; cited from earlier work

Cmax (in vivo): 0.027 ng/mL
Tmax (in vivo): 8.8 min
half-life (in vivo): 20.5 min
Compound: NC(=O)CC[C@@H]1NC(=O)[C@H](Cc2ccccc2)NC(=O)[C@H](Cc2ccc(O)cc2)NC(=O)CCSSC[C@@H](C(=O)N2CCC[C@H]2C(=O)N[C@H](CCCN=C(N)N)C(=O)NCC(N)=O)NC(=O)[C@H](CC(N)=O)NC1=O [dDAVP, desmopressin]
Peak % Inhibition of Diuretic Urine Flow (Normal test subjects): -76.7* %
half-life (T1/2) [1]: 17 to 18 min
